# In ChEMBL document CHEMBL3351365, “Short oligonucleotide prodrug having 5-fluoro and 5-iodouracil inhibits the proliferation of cancer cells in a photo-responsive manner” (Bioorg Med Chem Lett, 2014):
# Test: Retention time of the compound treated with FU'U ODN by HPLC analysis
# Format: physicochemical
structure (smiles),measurement,value
O=c1[nH]c(=O)n([C@H]2C[C@H](O)[C@@H](CO)O2)cc1F [FLOXURIDINE],Retention_time,19 min
